According to patent US5070210A, “Novel ketenimines as intermediates for insecticides” (ICI Americas Inc., priority 1990, dated 1991):

Experiments:
Format in all cases: in vivo
[1] = test system: Housefly [Musca domestica]; experiment: Housefly insecticidal test; conditions: μg per 25 female flies; mortality after 48 hours
Method in brief: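 Dose range started at 100 μg per 25 female flies and went downward. Insects (1-2 days old) contacted a dried acetone/peanut-oil deposit in dishes; LC50 values come from dosage-mortality curves at 48 h.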

[2] = test system: Cabbage Looper [Trichoplusia ni (Hubner)]; experiment: Cabbage looper insecticidal test; conditions: second-instar larvae, percent in solution; 3-5 days
Method in brief: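 Leaf dip, squash cotyledons, 50-50 acetone-water, top dose 0.1% and lower. 5 second-instar larvae/dish, moist filter paper, high-humidity chamber. Mortality at 3-5 d; LC50 (% in solution) from dosage-mortality curves.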

[3] = test system: Tobacco Budworm [Heliothis virescens (Fabricius)] eggs; experiment: Tobacco budworm egg test; conditions: 2-day old eggs, percent in solution
Method in brief: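 LC50 values (percent test compound in the dip solution) were calculated from dosage-mortality curves. Egg patches, 2 days old, were dipped in acetone solutions at concentrations from 0.1% downward and held at 78° F on rearing medium until control larvae hatched and fed.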

[4] = test system: Aster Leafhopper [Macrosteles fascifrens (Stal)]; experiment: Aster leafhopper insecticidal test; conditions: adults/nymphs, percent in solution; 48 hours
Procedure: The compounds in Tables 1 and 2 above were tested for insecticidal activity using the following testing procedures. LC50 values, based on the results of these tests and calculated according to dosage-mortality curves, are expressed in Table 3.
Aster Leafhopper [Macrosteles fascifrens (Stal)]
Oat seedlings (Avena sp) were grown in a commercial potting soil in cups. When the plants were approximately 10 cm tall they were thinned to three plants per cup and dipped for 2-3 seconds in 50-50 acetone-water solutions of the test compounds. When the plants had dried, a clear plastic tube was placed over them and the bottom end pressed into the cup. Ten aster leafhopper adults/nymphs were then placed in each tube and the tops of the tubes covered with white organdy cloth. Mortality counts were made after 48 hours. Test concentrations ranged from 0.05% down to that at which 50% mortality occurred. The LC50 values are expressed below in Table 3 under the heading "LH" in terms of the percent of the test compound in the solution.

Structure (SMILES) | LC50, HF [1] | LC50, CL [2] | LC50, TBW, E (TBW-E) [3] | LC50, LH [4]
CC(C)C(=Nc1cc(Cl)c(Cl)c(Cl)c1)OCc1cccc(Oc2ccccc2)c1 [Compound 20] | 64 µg | 0.0025% | < 0.1% | 0.003%
Fc1ccc(N=C(OCc2cccc(Oc3ccccc3)c2)C(Cl)=C(Cl)Cl)cc1 [Compound 49] | > 100 µg | 0.007% | > 0.05% | > 0.05%
CC(C)C(=Nc1c(F)c(F)cc(F)c1F)OCc1cccc(Oc2ccccc2)c1 [Compound 57] | > 100 µg | 0.004% | 0.1% | 0.0005%
COc1ccc(OC)c(N=C(OCc2cccc(Oc3ccccc3)c2)C(C)C)c1 [Compound 69] | > 100 µg | 0.09% | > 0.1% | > 0.05%
CC(C)C(=Nc1ccc(OC(F)(F)F)cc1)OCc1cccc(Oc2ccccc2)c1 [Compound 70] | < 100 µg | < 0.1% | 0.01% | > 0.05%
CC(C)C(=Nc1ccc(C(F)(F)F)c(Cl)c1)OCc1cccc(Oc2ccccc2)c1 [Compound 83] | > 100 µg | 0.007% | > 0.1% | > 0.05%
Cc1ccc(N=C(OCc2cccc(Oc3ccccc3)c2)C(C)C)cc1Cl [Compound 90] | > 100 µg | > 0.1% | 0.016% | 0.001%
COc1c(Cl)cc(N=C(OCc2cccc(Oc3ccccc3)c2)C(C)C)cc1Cl [Compound 91] | 37 µg | 0.002% | > 0.01% | 0.003%
CC(C)C(=Nc1c(Cl)cc([N+](=O)[O-])cc1Cl)OCc1cccc(Oc2ccccc2)c1 [Compound 92] | > 100 µg | 0.015% | > 0.1% | > 0.05%
Clc1ccc(N=C(OCc2cccc(Oc3ccccc3)c2)C(Cl)Cl)c2ccccc12 [Compound 98] | > 100 µg | 0.016% | 0.1% | > 0.05%
Cc1c(Cl)cc(N=C(OCc2cccc(Oc3ccccc3)c2)C(C)C)cc1Cl [Compound 101] | 81 µg | 0.0045% | > 0.1% | 0.0008%
CCOC(=O)c1cc(N=C(OCc2cccc(Oc3ccccc3)c2)C(C)C)ccc1Cl [Compound 102] | > 100 µg | 0.075% | > 0.1% | > 0.05%
CC(C)(Cl)C(=Nc1ccc(C#N)c(Cl)c1)OCc1cccc(Oc2ccccc2)c1 [Compound 108] | 44 µg | 0.002% | > 0.1% | > 0.01%
CC(C)C(=Nc1c(F)cc(F)cc1Br)OCc1cccc(Oc2ccccc2)c1 [Compound 129] | > 100 µg | 0.005% | > 0.1% | 0.01%
CC(C)C(=Nc1ccc(Br)cc1)OCc1cccc(Oc2ccccc2)c1 [Compound 131] | 17 µg | 0.0045% | > 0.1% | 0.005%
CC(C)(C)C(=Nc1ccc(Br)cc1)OCc1cccc(Oc2ccccc2)c1 [Compound 135] | > 100 µg | 0.004% | > 0.1% | > 0.05%
CC(C)C(=Nc1ccc(I)cc1)OCc1cccc(Oc2ccccc2)c1 [Compound 137] | 18 µg | 0.003% | 0.04% | 0.008%
CCc1cccc(N=C(OCc2cccc(Oc3ccccc3)c2)C(C)C)c1 [Compound 154] | 25 µg | 0.004% | 0.1% | > 0.05%
